Data from patent publication US12195557B2, “Optimised compounds” (AXELIA ONCOLOGY PTY LTD, priority 2017, dated 2025).
Where “and” joins values, the source holds several entries; their conditions need not be identical. Equal entries are not always repeated. Entries after “also recorded” stand apart in the source; their conditions may differ. Where two headings read alike, the source gives them in different places.

What was measured:
in vitro [1] = settings: cynomolgus monkey, hepatocytes
in vitro [2] = settings: rat, rat plasma
[3] = Size exclusion chromatography and LC-MS analysis of micelle aggregates; format: physicochemical; settings: INNA-006 at 0.3 mg/ml in PBS; INNA-011 at 0.4 mg/ml in saline
Method: INNA-011 and INNA-006 form micelle-type aggregates in both aqueous and organic solutions. The size distribution and polydispersity of particles of INNA-006 and INNA-011 were determined by dynamic light scattering (DLS) and size exclusion chromatography (University of Melbourne). […] This corresponds to the assembly in a micelle formation of about 266 individual INNA-006 molecules. Using size exclusion chromatography and LC-MS analysis, it was determined that INNA-011 at 0.4 mg/ml is present in saline solution as a single uniform species with a Stoke's radius of ˜7.3 nm and a molecular weight of ˜566,000. This corresponds to the assembly in a micelle formation of about 267 individual INNA-011 molecules.

[4] = human plasma, 37° C., 4 h time course
[5] = Dynamic light scattering (DLS) particle size; format: physicochemical; settings: within 2 hours of sample preparation
Method: INNA-011 and INNA-006 form micelle-type aggregates in both aqueous and organic solutions. The size distribution and polydispersity of particles of INNA-006 and INNA-011 were determined by dynamic light scattering (DLS) and size exclusion chromatography (University of Melbourne).
As the concentration of INNA-006 is increased, material with a particle size centered on a radius of ˜7 nm accumulates within 2 hours of the sample preparation as measured by DLS. This accumulation starts at a concentration of ˜16 μM, (0.02 mg/ml, represents the 0.16 nmole/10 μl curve) and is clearly discernable at 125 μM (0.17 mg/ml, represents the 1.25 nmole/10 μl curve) and above.
At the concentrations of 2 mM to […] particle sizes (7.4-7.7 nm) were larger than that observed with INNA-006 and additional species outside of this main sequence were more ordered and less dominant.

[6] = test system: other TLR pattern recognition receptors (hTLR3, hTLR4, hTLR5, hTLR7, hTLR8, hTLR9); assay: TLR panel, NF-κB inducible SEAP reporter in HEK293 cells: other TLRs; format: cell-based, human and mouse
Method: INNA-006 was assessed for its ability to activate a range of other TLR pattern recognition receptors. These assessments were conducted using both human and mouse TLR panels. These assays detect a secreted embryonic alkaline phosphatase (SEAP) reporter under the control of a promoter which is inducible by NF-κB activation in HEK293 cells. The secreted embryonic alkaline phosphatase (SEAP) reporter is under the control of a promoter inducible by the transcription factor NF-κB. This reporter gene allows the monitoring of signaling through the TLR, based on the activation of NF-κB. In a 96-well plate (200 μL total volume) containing the appropriate cells (50,000-75,000 cells/well), 20 μL of the test article or the positive control ligand is added to the wells. The media added to the wells is designed for the detection of NF-κB induced SEAP expression. After a 16-24 hr incubation the optical density (OD) is read at 650 nm on a Molecular Devices SpectraMax 340PC absorbance detector. • hTLR2: HKLM (heat-killed Listeria monocytogenes) at 1×10^8 cells/mL • hTLR3: Poly(I:C) HMW at 1 μg/mL • hTLR4: E. coli K12 LPS at 100 ng/mL • hTLR5: S. typhimurium flagellin at 100 ng/mL • hTLR7: CL307 at 1 μg/mL • hTLR8: CL075 at 1 μg/mL • hTLR9: CpG ODN2006 at 1 μg/mL.

in vitro [7] = settings: dog, dog plasma
[8] = test system: cytokines/chemokines (IL-6, KC, MCP-1, RANTES); assay: Cytokine/chemokine levels in nasal turbinates, trachea, lungs and sera (cytometric bead array); format: in vivo, C57BL/6 mice
in vitro [9] = settings: dog, hepatocytes
[10] = test system: A/Udorn/307/72 (H3N2) influenza virus; format: in vivo, C57BL/6 mice
in vitro [11] = settings: rat, hepatocytes
[12] = 3-dose regime, 0.5 and 0.05 nmole doses

In the case of `CCC(=O)OCC(CSCC(N)C(=O)NC(CO)C(=O)NCCOCC(=O)NCC(N)=O)OC(=O)CC` (stereo not drawn) [INNA-006, Pam2Cys-Ser-PEG], the half-life at 0.5 μM (in vitro [1]) is reported as greater than 6.25 h, the hepatocyte CLint at 0.5 μM (in vitro [1]) is reported as less than 2 µL/min/1e6 cells and the half-life (in vitro [2]) is reported as 5.7 h. The Stokes radius [3] was roughly 6.3 nm, the “individual molecules assembled in a micelle formation” value [3] was “about 266 molecules” and the “molecular weight of micelle species” value [3] was ~377,000. The plasma half-life [4] was “could not be calculated due to insufficient degradation”, the “concentration at which accumulation of ~7 nm particles starts” value ([5]; DLS) was roughly 16 µM and the “particle size (radius) by DLS” value ([5]; INNA-011 at 2 mM to 8 pM in PBS) was “around 7 nm”. The “activation of any other TLR tested” value [6] was “no activation”, the half-life (in vitro [7]) was 8.9 h and the “fold lower IL-6 in nasal turbinates, 3 doses compared to single dose” value ([8]; 0.5 nmoles) was “approximately 25 fold”. The “cytokine/chemokine levels in nasal turbinates, lungs and sera, 3 repeat doses compared to single dose” value ([8]; 0.5 or 0.05 nmoles) was “marked decrease in cytokine/chemokine levels”, the “level of KC in lungs” value ([8]; 3-dose regime (both 0.5 and 0.05 nmole doses)) was ~14 pg/mL and ~16.3 pg/mL and the “fold increase of KC secretion in lungs compared to INNA-003” value [8, 12] was 2 fold. The “fold increase of KC secretion in lungs compared to saline control” value [8, 12] was 3 fold, the “level of IL-6 in nasal turbinates” value ([8]; 3 doses (0.5 nmoles), 24 hours after last dose) was 15 pg/mL and the “fold increase of KC in nasal turbinates versus saline” value ([8]; mouse, in vivo) was 2 fold. The “level of KC in nasal turbinates” value ([8]; mouse, in vivo) was roughly 83 pg/mL, the “inflammatory cytokines after pre-treatment and Udorn challenge” value ([8]; pre-treatment with up to three doses followed by challenge) was “no detectable change in any of the inflammatory cytokines measured” and the “KC in the lungs compared to saline control” value ([8]; single dose) was “no significance”. The “RANTES in nasal turbinates compared to INNA-003” value ([8]; single dose 0.5 nmoles) was “increased RANTES secretion”, the “fold increase in IL-6 levels in nasal turbinates versus saline” value ([8]; single dose 0.5 nmoles) was 98 fold and the “level of IL-6 in nasal turbinates” value ([8]; single dose (0.5 nmoles), 24 hours after dose) was roughly 395 pg/mL. For the same compound, the “cytokine/chemokine profile in nasal turbinates compared to saline (IL-6, KC & MCP-1)” value ([8]; single or 3 repeat doses, 0.5 or 0.05 nmoles, dose-dependent) was “increase in proinflammatory cytokines and chemokines”, the half-life at 0.5 μM (in vitro [9]) was greater than 6.25 h and the hepatocyte CLint at 0.5 μM (in vitro [9]) was less than 2 µL/min/1e6 cells. The “progression of influenza virus to the lungs (lung viral titre)” value (shortened to “progression of influenza virus”) ([10]; 0.005 nmoles intranasal 1 day prior to 500 pfu Udorn challenge, n=5, day 5 (Example 4)) was “partial inhibition”, the “progression of influenza virus” value ([10]; 0.05 nmoles intranasal 1 day prior to challenge, n=10 (Example 5)) was “partial inhibition” and the “progression of influenza virus” value ([10]; 0.1 nmoles intranasal 1 day prior to 500 pfu Udorn challenge, n=5, day 5 (Example 4)) was “significantly inhibited”. For the same compound, the “progression of influenza virus” value ([10]; 0.5 nmoles intranasal 1 day prior to challenge, n=10 (Example 5)) was “significantly inhibited”, the “progression of influenza virus” value ([10]; 5 nmoles intranasal 1 day prior to 500 pfu Udorn challenge, n=5, day 5 (Example 4)) was “significantly inhibited” and the “progression of influenza virus” value ([10]; 5 nmoles intranasal 1 day prior to challenge, n=10 (Example 5)) was “significantly inhibited”. For the same compound, the “times more effective than INNA-003 at inhibiting viral progression” value ([10]; 3 doses of 0.5 nmoles (Example 7, FIG. 10)) was 10-100 times, the “progression of influenza virus” value ([10]; 3 doses of 0.5 nmoles (days 0, 2, 4), challenge one day after third dose (Example 7)) was “major reduction in viral load in the lungs; also recorded: significant reduction in dissemination of virus to lungs; also recorded: significantly inhibited” and the “times more effective than INNA-003 or Pam2Cys-SK4 at inhibiting viral progression” value ([10]; single dose 1 day prior to challenge (Example 4)) was 10-100 times. For the same compound, the half-life at 0.5 μM (in vitro [11]) was greater than 6.25 h and the hepatocyte CLint at 0.5 μM (in vitro [11]) was less than 2 µL/min/1e6 cells.
